According to PubChem BioAssay (NCI):
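Test compounds were applied to cells in 96-well plates for 48 hours at 5 doses. GI50 is the concentration that inhibits growth by half. The concentration for full growth arrest is given as TGI.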

How the values were obtained:
Assay in all cases: NCI tumour cell line growth inhibition, 48 h
[1] = system: SK-MEL-5 melanoma
[2] = system: SNB-75 CNS
[3] = system: M14 melanoma
[4] = system: K-562 leukemia
[5] = system: MALME-3M melanoma
[6] = system: OVCAR-8 ovarian
[7] = system: HT29 colon
[8] = system: COLO 205 colon
[9] = system: 786-0 renal
[10] = system: HCT-15 colon

Structure (SMILES)	GI50 [1]	TGI [1]	GI50 [2]	TGI [2]	GI50 [3]	TGI [3]	GI50 [4]	TGI [4]	GI50 [5]	TGI [5]	GI50 [6]	TGI [6]	GI50 [7]	TGI [7]	GI50 [8]	TGI [8]	GI50 [9]	TGI [9]	GI50 [10]	TGI [10]
Cc1ccc(S(=O)(=O)n2cc([C@@]3(O)C[C@H](CSC#N)OC3=O)c3ccccc32)cc1	2.44 µM	19.8 µM	15.5 µM	71 µM	7.94 µM	35.9 µM	6.2 µM	23.6 µM	12.1 µM	35.2 µM	10.2 µM	22.5 µM	11.9 µM	55 µM	6.42 µM	33.6 µM	12.7 µM	26.5 µM	13.6 µM	71.2 µM
O=C1OC(=O)C23CSCC12C1C=CC3O1 (stereo not given)	–	> 100 µM	–	> 100 µM	–	> 100 µM	–	> 100 µM	–	> 100 µM	–	> 100 µM	–	> 100 µM	–	> 100 µM	–	> 100 µM	–	> 100 µM
Cc1nn(C)c2ncnc(N/N=C/c3cccc(O)c3O)c12	0.433 µM	2.31 µM	0.548 µM	6.8 µM	0.259 µM	1.72 µM	0.387 µM	> 100 µM	0.52 µM	4.7 µM	0.413 µM	> 100 µM	3.94 µM	> 100 µM	1.11 µM	> 78.7 µM	1.22 µM	11.7 µM	0.225 µM	> 100 µM
COc1ccc(N2C(=O)[C@@H](N=[N+]=[N-])[C@@H]2[C@H]2COC(C)(C)O2)cc1	–	> 100 µM	–	> 100 µM	–	> 100 µM	–	> 100 µM	–	> 100 µM	–	> 100 µM	–	> 100 µM	–	> 100 µM	–	> 100 µM	–	> 100 µM
CS(=O)(=O)c1ccc(COP(N)(=O)N(CCCl)CCCl)cc1 (stereo not given)	–	> 100 µM	–	> 100 µM	–	> 100 µM	–	> 100 µM	–	> 100 µM	–	> 100 µM	–	> 100 µM	–	> 100 µM	–	> 100 µM	–	> 100 µM
CC(C)=Cc1cc(C)c2ccc(C)c3c2c1C(C)=C(O)C3=O	15.3 µM	28.9 µM	> 100 µM	> 100 µM	20.1 µM	45.7 µM	10.3 µM	24.7 µM	34.9 µM	> 100 µM	36.6 µM	> 100 µM	28.7 µM	> 100 µM	17.1 µM	41.6 µM	35.9 µM	> 100 µM	> 100 µM	> 100 µM
CCC(C)(O)c1cn(-c2ccc(Cl)cc2)nn1 (stereo not given)	–	> 100 µM	–	> 100 µM	–	> 100 µM	–	> 100 µM	–	> 100 µM	–	> 100 µM	–	> 100 µM	–	> 100 µM	–	> 100 µM	–	> 100 µM
CCN1CCN(c2cc(C(=O)Nc3cccc(Nc4ccc5c(OC)cccc5n4)c3)cc(C(F)(F)F)c2)CC1	1.55 µM	5.54 µM	1.05 µM	5.36 µM	0.668 µM	1.65 µM	0.91 µM	2.77 µM	0.611 µM	1.33 µM	1.97 µM	7.64 µM	0.572 µM	1.21 µM	0.654 µM	1.49 µM	3.73 µM	7.84 µM	0.797 µM	2.26 µM
CCCCCCC(=O)C/C(CCC(=O)N(Cc1ccccc1)Cc1ccccc1)=N\NC(N)=O	–	> 100 µM	–	> 100 µM	–	> 100 µM	–	> 100 µM	–	> 100 µM	–	> 100 µM	–	> 100 µM	–	> 100 µM	–	> 100 µM	–	> 100 µM
CC(C)C[C@H](NC(=O)Cn1cccc(CNC(=O)c2ccccc2)c1=O)B(O)O	0.158 µM	0.842 µM	0.32 µM	2.33 µM	0.27 µM	1.42 µM	1.3 µM	> 100 µM	0.16 µM	1.88 µM	4.23 µM	> 85.7 µM	0.352 µM	11.5 µM	1.65 µM	97.8 µM	1.06 µM	> 61.5 µM	4.7 µM	37.3 µM
COc1ccc(CSC2=C(C#N)C(=O)NC3(CCCCC3)S2)cc1	–	> 100 µM	–	> 100 µM	–	> 100 µM	–	> 100 µM	–	> 100 µM	–	> 100 µM	–	> 100 µM	–	> 100 µM	–	> 100 µM	–	> 100 µM
C=CCC12CC(=O)CCC1c1ccc(OC)cc1C2=O (stereo not given)	–	> 100 µM	–	> 100 µM	–	> 100 µM	–	> 100 µM	–	> 100 µM	–	> 100 µM	–	> 100 µM	–	> 100 µM	–	> 100 µM	–	> 100 µM
O=c1cc[nH]cc1-c1c[nH]ccc1=O	–	> 100 µM	–	> 100 µM	–	> 100 µM	–	> 100 µM	–	> 100 µM	–	> 100 µM	–	> 100 µM	–	> 100 µM	–	> 100 µM	–	> 100 µM
C=CC1C(CC2OC(CO)C(O)C(O)C2O)OC=C2C(=O)OCCC21O (stereo not given)	15.7 µM	37.5 µM	1.84 µM	18.6 µM	22.3 µM	65.7 µM	6.6 µM	> 100 µM	17.8 µM	51 µM	16.7 µM	62.4 µM	2.23 µM	8.02 µM	19.9 µM	45.2 µM	2.67 µM	17.5 µM	19.5 µM	49.9 µM
OCCCCC#Cc1ccccc1C#Cc1cccnc1	54.8 µM	> 100 µM	40.3 µM	> 100 µM	23.4 µM	75.4 µM	23.9 µM	71.1 µM	37.8 µM	92.2 µM	30.7 µM	> 100 µM	22.3 µM	87.8 µM	28.4 µM	94.4 µM	20.2 µM	58.3 µM	21.9 µM	74.1 µM
Cc1ccc(N2C(=O)/C(=C/c3ccc(N(CCC#N)CCC#N)cc3)N=C2COc2ccc(Cl)cc2Cl)cc1	–	> 100 µM	–	> 100 µM	–	> 100 µM	–	> 100 µM	–	> 100 µM	–	> 100 µM	–	> 100 µM	–	> 100 µM	–	> 100 µM	–	> 100 µM
